Where a name gives a salt, the structure may show the parent alone.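 Dose response: 5 concentrations. Exposure: 48 h. Format: 96-well plates. Endpoint: linear interpolation; highest concentration if not reached. Abbreviation: GI50, concentration required for 50% inhibition of growth.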 Activity calls are given as the source filed them. Cut-off read from the data, not from the text of the source: active = GI50 up to about 1.1 µM and inactive = higher.
What was measured:
Test in all cases: growth of human tumour cells (NCI), 48 h
HT-29 = test system: HT-29
MCF7 = test system: MCF7
K562 = test system: K562
CCRF-CEM = test system: CCRF-CEM
PC-3 = test system: PC-3
A498 = test system: A498
HOP-92 = test system: HOP-92
MDA-N = test system: MDA-N
SW-620 = test system: SW-620
NCI-H226 = test system: NCI-H226
M14 = test system: M14
SF-539 = test system: SF-539
UO-31 = test system: UO-31
MDA-MB-231 = test system: MDA-MB-231
SK-MEL-2 = test system: SK-MEL-2
Malme-3M = test system: Malme-3M
IGROV-1 = test system: IGROV-1
HOP-62 = test system: HOP-62
SR = test system: SR

Row | SMILES | GI50 (HT-29) | GI50 (MCF7) | GI50 (K562) | GI50 (CCRF-CEM) | GI50 (PC-3) | GI50 (A498) | GI50 (HOP-92) | GI50 (MDA-N) | GI50 (SW-620) | GI50 (NCI-H226) | GI50 (M14) | GI50 (SF-539) | GI50 (UO-31) | GI50 (MDA-MB-231) | GI50 (SK-MEL-2) | GI50 (Malme-3M) | GI50 (IGROV-1) | GI50 (HOP-62) | GI50 (SR)
1 | CC(C)(C)c1cc(C2COC(c3cc(C(C)(C)C)c(O)c(C(C)(C)C)c3)CO2)cc(C(C)(C)C)c1O (configuration not stated) | > 100 µM (inactive) | > 100 µM (inactive) | > 100 µM (inactive) | > 100 µM (inactive) | > 100 µM (inactive) | > 100 µM (inactive) | > 100 µM (inactive) | > 100 µM (inactive) | > 100 µM (inactive) | > 100 µM (inactive) | > 100 µM (inactive) | > 100 µM (inactive) | > 100 µM (inactive) | > 100 µM (inactive) | > 100 µM (inactive) | > 100 µM (inactive) | > 100 µM (inactive) | > 100 µM (inactive) | –
2 | O=c1oc2ccccc2c(Nc2ccc3c(c2)S(=O)(=O)c2ccccc2O3)c1[N+](=O)[O-] | 34.5 µM (inactive) | 21.8 µM (inactive) | 20.6 µM (inactive) | 23.6 µM (inactive) | 21.5 µM (inactive) | – | 20 µM (inactive) | 22.5 µM (inactive) | 32.8 µM (inactive) | 25.7 µM (inactive) | 26.2 µM (inactive) | 25.3 µM (inactive) | 33.4 µM (inactive) | 24.5 µM (inactive) | 19.3 µM (inactive) | 23.5 µM (inactive) | 21.6 µM (inactive) | 30 µM (inactive) | 22 µM (inactive)
3 | COc1ccc2c(c1)CN1C(=N2)CSC1c1c(Cl)cccc1[N+](=O)[O-] (configuration not stated) | 17.9 µM (inactive) | 14.4 µM (inactive) | 13.6 µM (inactive) | – | 23.8 µM (inactive) | – | 16.7 µM (inactive) | 18.5 µM (inactive) | 15.6 µM (inactive) | 11.9 µM (inactive) | 18.3 µM (inactive) | 15.1 µM (inactive) | 21.3 µM (inactive) | 16.4 µM (inactive) | 17.5 µM (inactive) | 30.2 µM (inactive) | 31 µM (inactive) | 34.3 µM (inactive) | 15.6 µM (inactive)
4 | C[Si](C)(C)c1ccc(-c2c3ccc(-c4cc(Br)cc(Br)c4)nc3nc3nc(-c4cc(Br)cc(Br)c4)ccc23)cc1 | – | > 100 µM (inactive) | – | – | > 100 µM (inactive) | > 100 µM (inactive) | > 100 µM (inactive) | > 100 µM (inactive) | – | > 100 µM (inactive) | > 100 µM (inactive) | – | > 100 µM (inactive) | > 100 µM (inactive) | > 100 µM (inactive) | > 100 µM (inactive) | – | > 100 µM (inactive) | –
5 | C=C[C@@]1(C)CC[C@@H]2[C@@]3(C1)O[C@H]3CC1[C@](C)(C(=O)OC)CCC[C@@]12C (some centres not stated) | 14.1 µM (inactive) | 15.6 µM (inactive) | 32.8 µM (inactive) | – | 30.4 µM (inactive) | 32.5 µM (inactive) | 16.7 µM (inactive) | 22.1 µM (inactive) | 23.7 µM (inactive) | – | 19.6 µM (inactive) | – | 17.9 µM (inactive) | 23 µM (inactive) | 18.9 µM (inactive) | 17.7 µM (inactive) | 25.6 µM (inactive) | 20 µM (inactive) | –
6 | Cc1cc2nc(N3C(=O)/C(=C/c4ccc(N(C)C)cc4)N=C3c3ccccc3)sc2cc1C | 18.5 µM (inactive) | 0.515 µM (active) | 25.9 µM (inactive) | 11.3 µM (inactive) | 15.9 µM (inactive) | – | 15.2 µM (inactive) | 11.6 µM (inactive) | 24.7 µM (inactive) | – | 26.7 µM (inactive) | 22.2 µM (inactive) | 24.2 µM (inactive) | 26 µM (inactive) | 24.1 µM (inactive) | – | 16.3 µM (inactive) | > 100 µM (inactive) | 6.05 µM (inactive)
7 | CC12CCCC(O)C1CCC1=CC3(CCC12)SCCS3 (configuration not stated) | > 10 µM (inactive) | > 10 µM (inactive) | > 10 µM (inactive) | 5.83 µM (inactive) | > 10 µM (inactive) | – | > 10 µM (inactive) | > 10 µM (inactive) | > 10 µM (inactive) | – | > 10 µM (inactive) | – | – | > 10 µM (inactive) | – | > 10 µM (inactive) | > 10 µM (inactive) | > 10 µM (inactive) | > 10 µM (inactive)
8 | COc1cc2c3c(n(C)c(=O)c2cc1OC)-c1cc2c(cc1/C3=C\CCCCl)OCO2 | 39.7 µM (inactive) | 42 µM (inactive) | 23.2 µM (inactive) | 8.95 µM (inactive) | > 100 µM (inactive) | 25.3 µM (inactive) | 82.2 µM (inactive) | > 100 µM (inactive) | > 100 µM (inactive) | – | 36.9 µM (inactive) | – | 53.8 µM (inactive) | 27.3 µM (inactive) | 25.5 µM (inactive) | > 100 µM (inactive) | 25.4 µM (inactive) | – | –
9 | CN(C)CCOC(c1ccccc1)c1ccccc1 [DIPHENHYDRAMINE HYDROCHLORIDE] | > 100 µM (inactive) | > 100 µM (inactive) | > 100 µM (inactive) | > 100 µM (inactive) | > 100 µM (inactive) | – | 25 µM (inactive) | > 100 µM (inactive) | > 100 µM (inactive) | > 100 µM (inactive) | 51.2 µM (inactive) | – | > 100 µM (inactive) | > 100 µM (inactive) | 72.4 µM (inactive) | > 100 µM (inactive) | > 100 µM (inactive) | > 100 µM (inactive) | 38.5 µM (inactive)

— ChEMBL document CHEMBL1201862, “PubChem BioAssay data set” (2004)
